# Assay results taken from ChEMBL document CHEMBL1137656, “Effects of serum on in vitro susceptibility testing of echinocandins” (Antimicrob Agents Chemother, 2007).
# Numbered stars: 1 amine (or outer) side, 2 acyl side, 3 side chain; on linkers, the order of the positions; unused ones are H or OH. Bridge positions count the residues as written; N and C are the ends. Square brackets hold non-standard residues; d marks the D form. Peptide text beside a SMILES is read from it. * marks the point of attachment. hTyr(3S-OH,4S-OH,3'-OSO3H) = N[C@H](C(=O)O)[C@H](O)[C@@H](O)c1ccc(O)c(OS(=O)(=O)O)c1; pTerphenylCO(4''-OnC5H11) = CCCCCOc1ccc(-c2ccc(-c3ccc(C(=O)*)cc3)cc2)cc1; Orn(4R-OH,5R-OH) = O=C([C@H](C[C@@H](O)[C@@H](O)N[*:3])N[*:1])[*:2]; hTyr(3S-OH,4S-OH) = N[C@H](C(=O)O)[C@H](O)[C@@H](O)c1ccc(O)cc1; Pro(3S-OH,4S-Me) = C[C@H]1CN[C@H](C(=O)O)[C@H]1O; X1 = CCCCCOc1ccc(-c2cc(-c3ccc(C(=O)*)cc3)no2)cc1; Gln(3R-OH) = NC(=O)C[C@@H](O)[C@H](N)C(=O)O; Hyp = O=C(O)[C@@H]1C[C@@H](O)CN1
# Experiments:
# Format in all cases: functional
# Aspergillus fumigatus [1] = assay: Antifungal activity against Aspergillus fumigatus isolate 0002-021 after 24 hrs by CLSI M38-A broth microdilution method in presence of 50% human serum; conditions: isolate 0002-021, 24 h
# Nakaseomyces glabratus [2] = assay: Antifungal activity against Candida glabrata isolate 0022-012 after 24 hrs by CLSI M27-A2 broth microdilution method in presence of 50% human serum; conditions: isolate 0022-012, 24 h
# Candida parapsilosis [3] = assay: Ratio of MIC50 for Candida parapsilosis isolate 0026-003 in presence of 50% human serum to MIC50 for Candida parapsilosis isolate 0026-003 in presence of RPMI 1640 medium
# Candida albicans [4] = assay: Ratio of MIC50 for Candida albicans isolate 0021-076 in presence of 50% human serum to MIC50 for Candida albicans isolate 0021-076 in presence of RPMI 1640 medium
# Nakaseomyces glabratus [5] = assay: Ratio of MIC50 for Candida glabrata isolate 0049-038 in presence of 50% human serum to MIC50 for Candida glabrata isolate 0049-038 in presence of RPMI 1640 medium
# Candida tropicalis [6] = assay: Ratio of MIC50 for Candida tropicalis isolate 0022-021 in presence of 50% human serum to MIC50 for Candida tropicalis isolate 0022-021 in presence of RPMI 1640 medium
# Aspergillus terreus [7] = assay: Antifungal activity against Aspergillus terreus isolate 0031-087 after 48 hrs by CLSI M38-A broth microdilution method in presence of RPMI 1640 medium; conditions: isolate 0031-087, 48 h
# Aspergillus terreus [8] = assay: Ratio of MIC50 for Aspergillus terreus isolate 0031-087 in presence of 50% human serum to MIC50 for Aspergillus terreus isolate 0031-087 in presence of RPMI 1640 medium
# Candida albicans [9] = assay: Ratio of MIC50 for Candida albicans isolate 0012-025 in presence of 50% human serum to MIC50 for Candida albicans isolate 0012-025 in presence of RPMI 1640 medium
# Candida parapsilosis [10] = assay: Antifungal activity against Candida parapsilosis isolate 0026-003 after 24 hrs by CLSI M27-A2 broth microdilution method in presence of 50% human serum; conditions: Lodderomyces parapsilosis, isolate 0026-003, 24 h
# Candida tropicalis [11] = assay: Antifungal activity against Candida tropicalis isolate 0022-021 after 24 hrs by CLSI M27-A2 broth microdilution method in presence of RPMI 1640 medium; conditions: isolate 0022-021, 24 h
# Nakaseomyces glabratus [12] = assay: Antifungal activity against Candida glabrata isolate 0049-038 after 24 hrs by CLSI M27-A2 broth microdilution method in presence of RPMI 1640 medium; conditions: isolate 0049-038, 24 h
# Aspergillus fumigatus [13] = assay: Ratio of MIC50 for Aspergillus fumigatus isolate 0002-021 in presence of 50% human serum to MIC50 for Aspergillus fumigatus isolate 0002-021 in presence of RPMI 1640 medium
# Aspergillus fumigatus [14] = assay: Ratio of MIC50 for Aspergillus fumigatus isolate 0002-0016 in presence of 50% human serum to MIC50 for Aspergillus fumigatus isolate 0002-0016 in presence of RPMI 1640 medium
# Candida parapsilosis [15] = assay: Antifungal activity against Candida parapsilosis isolate 0014-074 after 24 hrs by CLSI M27-A2 broth microdilution method in presence of 50% human serum; conditions: Lodderomyces parapsilosis, isolate 0014-074, 24 h
# Candida parapsilosis [16] = assay: Ratio of MIC50 for Candida parapsilosis isolate 0036-030 in presence of 50% human serum to MIC50 for Candida parapsilosis isolate 0036-030 in presence of RPMI 1640 medium
# Candida parapsilosis [17] = assay: Antifungal activity against Candida parapsilosis isolate 0011-013 after 24 hrs by CLSI M27-A2 broth microdilution method in presence of RPMI 1640 medium; conditions: Lodderomyces parapsilosis, isolate 0011-013, 24 h
# Aspergillus fumigatus [18] = assay: Antifungal activity against Aspergillus fumigatus isolate 0002-021 after 24 hrs by CLSI M38-A broth microdilution method in presence of RPMI 1640 medium; conditions: isolate 0002-021, 24 h
# Candida albicans [19] = assay: Antifungal activity against Candida albicans isolate 0021-076 after 24 hrs by CLSI M27-A2 broth microdilution method in presence of 50% human serum; conditions: isolate 0021-076, 24 h
# Aspergillus fumigatus [20] = assay: Ratio of MIC50 for Aspergillus fumigatus isolate 0002-020 in presence of 50% human serum to MIC50 for Aspergillus fumigatus isolate 0002-020 in presence of RPMI 1640 medium
# Aspergillus niger = assay: Antifungal activity against Aspergillus niger isolate 0001-073 after 24 hrs by CLSI M38-A broth microdilution method in presence of 50% human serum; conditions: isolate 0001-073, 24 h
# Aspergillus terreus [21] = assay: Antifungal activity against Aspergillus terreus isolate 0031-087 after 48 hrs by CLSI M38-A broth microdilution method in presence of 50% human serum; conditions: isolate 0031-087, 48 h
# Candida parapsilosis [22] = assay: Antifungal activity against Candida parapsilosis ATCC 22019 after 24 hrs by CLSI M27-A2 broth microdilution method in presence of 50% human serum; conditions: Lodderomyces parapsilosis, ATCC 22019, 24 h
# Pichia kudriavzevii [23] = assay: Antifungal activity against Candida krusei ATCC 6258 after 24 hrs by CLSI M27-A2 broth microdilution method in presence of 50% human serum; conditions: ATCC 6258, 24 h
# Pichia kudriavzevii [24] = assay: Antifungal activity against Candida krusei ATCC 6258 after 24 hrs by CLSI M27-A2 broth microdilution method in presence of RPMI 1640 medium; conditions: ATCC 6258, 24 h
# Aspergillus fumigatus [25] = assay: Antifungal activity against Aspergillus fumigatus isolate 0002-020 after 24 hrs by CLSI M38-A broth microdilution method in presence of 50% human serum; conditions: isolate 0002-020, 24 h
# Candida parapsilosis [26] = assay: Antifungal activity against Candida parapsilosis isolate 0011-013 after 24 hrs by CLSI M27-A2 broth microdilution method in presence of 50% human serum; conditions: Lodderomyces parapsilosis, isolate 0011-013, 24 h
# Aspergillus flavus = assay: Ratio of MIC50 for Aspergillus flavus isolate 0001-033 in presence of 50% human serum to MIC50 for Aspergillus flavus isolate 0001-033 in presence of RPMI 1640 medium
# Pichia kudriavzevii [27] = assay: Antifungal activity against Candida krusei isolate 0001-058 after 24 hrs by CLSI M27-A2 broth microdilution method in presence of RPMI 1640 medium; conditions: isolate 0001-058, 24 h
# Candida parapsilosis [28] = assay: Ratio of MIC50 for Candida parapsilosis isolate 0011-013 in presence of 50% human serum to MIC50 for Candida parapsilosis isolate 0011-013 in presence of RPMI 1640 medium
# Candida tropicalis [29] = assay: Ratio of MIC50 for Candida tropicalis isolate 0050-028 in presence of 50% human serum to MIC50 for Candida tropicalis isolate 0050-028 in presence of RPMI 1640 medium
# Clavispora lusitaniae = assay: Ratio of MIC50 for Candida lusitaniae isolate 0013-002 in presence of 50% human serum to MIC50 for Candida lusitaniae isolate 0013-002 in presence of RPMI 1640 medium
MIC50 (Aspergillus fumigatus [1]),MIC50 (Nakaseomyces glabratus [2]),MIC50 (Aspergillus terreus [7]),MIC50 (Candida parapsilosis [10]),MIC50 (Candida tropicalis [11]),MIC50 (Nakaseomyces glabratus [12]),MIC50 (Candida parapsilosis [15]),MIC50 (Candida parapsilosis [17]),MIC50 (Aspergillus fumigatus [18]),MIC50 (Candida albicans [19]),SMILES,Ratio (Candida parapsilosis [3]),Ratio (Candida albicans [4]),Ratio (Nakaseomyces glabratus [5]),Ratio (Candida tropicalis [6]),Ratio (Aspergillus terreus [8]),Ratio (Candida albicans [9]),Ratio (Aspergillus fumigatus [13]),Ratio (Aspergillus fumigatus [14]),Ratio (Candida parapsilosis [16]),Ratio (Aspergillus fumigatus [20]),further results
1 µg/mL,1 µg/mL,0.002 µg/mL,64 µg/mL,0.0156 µg/mL,0.004 µg/mL,0.5 µg/mL,0.0156 µg/mL,0.001 µg/mL,64 µg/mL,"CCCCCOc1ccc(-c2cc(-c3ccc(C(=O)N[C@H]4C[C@@H](O)[C@@H](O)NC(=O)[C@@H]5[C@@H](O)[C@@H](C)CN5C(=O)[C@H]([C@H](O)CC(N)=O)NC(=O)[C@H]([C@H](O)[C@@H](O)c5ccc(O)c(OS(=O)(=O)O)c5)NC(=O)[C@@H]5C[C@@H](O)CN5C(=O)[C@H]([C@@H](C)O)NC4=O)cc3)no2)cc1 [MICAFUNGIN] (X1-[Orn(4R-OH,5R-OH)]T[Hyp][hTyr(3S-OH,4S-OH,3'-OSO3H)][Gln(3R-OH)][Pro(3S-OH,4S-Me)]; lactam 1-C)",128,128,256,128,128,64,1024,64,256,128,MIC50 (Aspergillus niger): 0.25 µg/mL; MIC50 (Aspergillus terreus [21]): 0.25 µg/mL; MIC50 (Candida parapsilosis [22]): 32 µg/mL; MIC50 (Pichia kudriavzevii [23]): 8 µg/mL; MIC50 (Pichia kudriavzevii [24]): 0.0625 µg/mL; MIC50 (Aspergillus fumigatus [25]): 0.5 µg/mL; MIC50 (Candida parapsilosis [26]): 4 µg/mL; Ratio (Aspergillus flavus): 1024; MIC50 (Pichia kudriavzevii [27]): 0.0625 µg/mL; Ratio (Candida parapsilosis [28]): 256; Ratio (Candida tropicalis [29]): 128; Ratio (Clavispora lusitaniae): 128
128 µg/mL,0.5 µg/mL,0.5 µg/mL,8 µg/mL,0.5 µg/mL,0.5 µg/mL,0.5 µg/mL,0.25 µg/mL,1 µg/mL,4 µg/mL,CC[C@H](C)C[C@H](C)CCCCCCCCC(=O)N[C@H]1C[C@@H](O)[C@@H](NCCN)NC(=O)[C@@H]2[C@@H](O)CCN2C(=O)[C@H]([C@H](O)CCN)NC(=O)[C@H]([C@H](O)[C@@H](O)c2ccc(O)cc2)NC(=O)[C@@H]2C[C@@H](O)CN2C(=O)[C@H]([C@@H](C)O)NC1=O [CASPOFUNGIN],8,8,1,1,1,1,128,16,8,256,MIC50 (Aspergillus niger): 0.25 µg/mL; MIC50 (Aspergillus terreus [21]): 0.5 µg/mL; MIC50 (Candida parapsilosis [22]): 8 µg/mL; MIC50 (Pichia kudriavzevii [23]): 4 µg/mL; MIC50 (Pichia kudriavzevii [24]): 0.5 µg/mL; MIC50 (Aspergillus fumigatus [25]): 128 µg/mL; MIC50 (Candida parapsilosis [26]): 1 µg/mL; Ratio (Aspergillus flavus): 4; MIC50 (Pichia kudriavzevii [27]): 0.5 µg/mL; Ratio (Candida parapsilosis [28]): 4; Ratio (Candida tropicalis [29]): 4; Ratio (Clavispora lusitaniae): 1

SMILES,MIC50 (Aspergillus fumigatus [1]),MIC50 (Nakaseomyces glabratus [2]),MIC50 (Aspergillus terreus [7]),MIC50 (Candida parapsilosis [10]),MIC50 (Candida tropicalis [11]),MIC50 (Nakaseomyces glabratus [12]),MIC50 (Candida parapsilosis [15]),MIC50 (Candida parapsilosis [17]),MIC50 (Aspergillus fumigatus [18]),MIC50 (Candida albicans [19]),Ratio (Candida parapsilosis [3]),Ratio (Candida albicans [4]),Ratio (Nakaseomyces glabratus [5]),Ratio (Candida tropicalis [6]),Ratio (Aspergillus terreus [8]),Ratio (Candida albicans [9]),Ratio (Aspergillus fumigatus [13]),Ratio (Aspergillus fumigatus [14]),Ratio (Candida parapsilosis [16]),Ratio (Aspergillus fumigatus [20]),further results
"CCCCCOc1ccc(-c2ccc(-c3ccc(C(=O)N[C@H]4C[C@@H](O)[C@@H](O)NC(=O)[C@@H]5[C@@H](O)[C@@H](C)CN5C(=O)[C@H]([C@@H](C)O)NC(=O)[C@H]([C@H](O)[C@@H](O)c5ccc(O)cc5)NC(=O)[C@@H]5C[C@@H](O)CN5C(=O)[C@H]([C@@H](C)O)NC4=O)cc3)cc2)cc1 [ANIDULAFUNGIN] ({pTerphenylCO(4''-OnC5H11)}-[Orn(4R-OH,5R-OH)]T[Hyp][hTyr(3S-OH,4S-OH)]T[Pro(3S-OH,4S-Me)]; lactam 1-C)",128 µg/mL,1 µg/mL,0.0156 µg/mL,128 µg/mL,0.0156 µg/mL,0.0625 µg/mL,0.25 µg/mL,0.0313 µg/mL,0.002 µg/mL,128 µg/mL,64,256,32,128,16,16,64000,64,128,64,MIC50 (Aspergillus niger): 0.5 µg/mL; MIC50 (Aspergillus terreus [21]): 0.25 µg/mL; MIC50 (Candida parapsilosis [22]): 64 µg/mL; MIC50 (Pichia kudriavzevii [23]): 2 µg/mL; MIC50 (Pichia kudriavzevii [24]): 0.125 µg/mL; MIC50 (Aspergillus fumigatus [25]): 0.5 µg/mL; MIC50 (Candida parapsilosis [26]): 2 µg/mL; Ratio (Aspergillus flavus): 32; MIC50 (Pichia kudriavzevii [27]): 0.0313 µg/mL; Ratio (Candida parapsilosis [28]): 64; Ratio (Candida tropicalis [29]): 128; Ratio (Clavispora lusitaniae): 512
